Reference: patent US9567327B2, “Imidazo[1,2-a]pyridine derivatives as modulators of the 5-HT2A serotonin receptor useful for the treatment of disorders related thereto” (Arena Pharmaceuticals, Inc., priority 2007, dated 2017)

Legend:
[1] = system: diabetic rats; conditions: cited from earlier work
[2] = system: diabetic nephropathy; conditions: patients, 24 months of treatment; cited from earlier work
[3] = system: glaucoma patients; conditions: cited from earlier work
[4] = system: rats; conditions: thermal induced pain i.p., inflammatory pain intrathecal or i.p.; cited from earlier work
[5] = system: humans; conditions: sciatica from lumbar disc herniation; cited from earlier work
[6] = system: DOI-induced hypolocomotion in rats; test: Attenuation of DOI-induced hypolocomotion in rats; assay type: in vivo, rat; conditions: male Sprague-Dawley rats, compound 1-10 mg/kg p.o., DOI 1 mg/kg s.c.
Protocol: In this example, compounds of the invention were tested for inverse agonist activity by determining whether these compounds could attenuate DOI-induced hypolocomotion in rats in a novel environment. DOI is a potent 5-HT2A/2C receptor agonist that crosses the blood-brain barrier. The standard protocol used is described briefly below.
Male Sprague-Dawley rats weighing between 200-350 g were used for all tests. Rats were housed three to four per cage.
(R)-DOI HCl (C11H16INO2.HCl) was obtained from Sigma-Aldrich and was dissolved in 0.9% saline. Compounds of the invention were synthesized at Arena Pharmaceuticals Inc., San Diego, Calif. and were dissolved in 100% PEG400. DOI was injected s.c. in a volume of 1 mL/kg, while compounds of the invention were administered p.o. in a volume of 1 mL/kg.
The “Motor Monitor” (Hamilton-Kinder, Poway, Calif.) was used for all activity measurement. This apparatus recorded rears using infrared photobeams. […]
In determining the effects of compounds of the invention on DOI-induced hypoactivity, animals were first injected with vehicle or the compound of the invention (1-10 mg/kg) in their home cages. […] Ten minutes after DOI administration, animals were placed into the activity apparatus and rearing activity was measured for 10 min.
Results (total rears over 10 min) were analyzed by t-test. […]

[7] = system: normal volunteers; test: APD125 Phase 1 trials / afternoon nap model of insomnia in normal volunteers; assay type: in vivo, human
Description: APD125, a potent and selective 5-HT2A serotonin receptor inverse agonist is a member of the genus disclosed in the European Patent EP1558582. […] These effects occurred at the expense of REM sleep. Sleep onset latency was not decreased by APD125.

[8] = biological target: human 5-HT2A serotonin receptor (Homo sapiens (Human), UniProt P28223); conditions: 0.5 nM [125I]DOI, COS7 membranes with recombinant human 5-HT2A; read-out: IC50 DOI Binding Assay
[9] = system: DOCA-salt induced hypertension in rats; conditions: cited from earlier work
[10] = system: JC virus; conditions: cited from earlier work
[11] = system: heatstroke; conditions: in vivo; cited from earlier work
[12] = system: spontaneously hypertensive rats; conditions: cited from earlier work

## COc1cccc(CCc2ccccc2OCC(CN(C)C)OC(=O)CCC(=O)O)c1 (stereo not drawn) [sarpogrelate]
[1]
  correction of a 19.8% sciatic motor conduction deficit: 82.6-99.7%
[2]
  urinary albumin excretion level: significantly reduced
[3]
  intra ocular pressure (IOP): significantly lower IOP
[4]
  analgesic effect: significant analgesic effect
[5]
  treatment of lower back pain, leg pain and numbness: effective treatment

## O=C(c1cccn2ccnc12)N1CCN(CCc2ccc(Cl)cc2Cl)CC1 [Compound 19, (4-(2,4-Dichlorophenethyl)piperazin-1-yl)(imidazo[1,2-α]pyridin-8-yl)methanone]
[6]
  attenuation of DOI-induced hypolocomotion (total rears over 10 min): attenuated DOI-induced hypolocomotion

## COc1ccc(NC(=O)Nc2ccc(F)cc2F)cc1-c1c(Br)cnn1C [APD125]
[7]; Phase 1 trials, maximal effects at 40-80 mg
  effect on waking EEG: vigilance-lowering effects
[7]; afternoon nap model
  microarousals, sleep stage shifts and awakenings after sleep onset: decreased microarousals, the number of sleep stage shifts and number of awakenings after sleep onset
[7]; afternoon nap model of insomnia, normal volunteers
  slow wave sleep and associated parameters: increased slow wave sleep and associated parameters in a dose-dependent manner
[7]; afternoon nap model, normal volunteers
  sleep onset latency: not decreased

## O=CN1CCC(C(=O)NCCN2CCC(=C3c4ccccc4C=Cc4ccccc43)CC2)CC1 [AT-1015]
[1]
  correction of a 19.8% sciatic motor conduction deficit: 82.6-99.7%

## O=C(c1cccn2cc(-c3ccccc3)nc12)N1CCN(CCc2ccc(F)cc2)CC1 [Compound 9, (4-(4-Fluorophenethyl)piperazin-1-yl)(2-phenylimidazo[1,2-α]pyridin-8-yl)methanone]
[8]
  IC50: 46 nM

## CN1CCN2c3ccccc3Cc3ccccc3C2C1 (stereo not drawn) [Mainserin]
[9]
  DOCA-salt induced hypertension: prevent DOCA-salt induced hypertension

## Cc1nc2sccn2c(=O)c1CCN1CCC(=C(c2ccc(F)cc2)c2ccc(F)cc2)CC1 [ritanserin]
[1]
  correction of a 19.8% sciatic motor conduction deficit: 82.6-99.7%
[10]
  JC virus infection of human glial cells: inhibited JC virus infection of human glial cells

## O=C(c1cccn2ccnc12)N1CCN(CCc2ccccc2F)CC1 [Compound 18, (4-(2-Fluorophenethyl)piperazin-1-yl)(imidazo[1,2-α]pyridin-8-yl)methanone]
[6]
  attenuation of DOI-induced hypolocomotion (total rears over 10 min): attenuated DOI-induced hypolocomotion

## O=C(c1ccc(F)cc1)C1CCN(CCn2c(=O)[nH]c3ccccc3c2=O)CC1 [ketanserin]
[3]
  intra ocular pressure (IOP): significantly lower IOP
[10]
  JC virus infection of human glial cells: inhibited JC virus infection of human glial cells
[11]
  protection during heatstroke: protect against circulatory shocks, intracranial hypertension and cerebral ischemia during heatstroke
[12]
  blood pressure: stabilize blood pressure

## O=C(c1cccn2ccnc12)N1CCN(CC(F)c2ccc(F)cc2)CC1 (stereo not drawn) [Compound 10, (4-(2-Fluoro-2-(4-fluorophenyl)ethyl)piperazin-1-yl)(imidazo[1,2-α]pyridin-8-yl)methanone]
[8]
  IC50: 10 nM
